The values that follow are results of earlier work, collected in patent publication US9040672B2, “Devices and methods for reducing matrix effects” (Agilent Technologies, Inc., priority 2007, dated 2015).

The conditions of this series: octanol-water partition coefficient.

As to `CC[C@@H]([C@H](C)O)n1ncn(-c2ccc(N3CCN(c4ccc(OC[C@@H]5CO[C@@](Cn6cncn6)(c6ccc(F)cc6F)C5)cc4)CC3)cc2)c1=O` [posaconazole], the lipophilicity (Log P) is reported as 5.66.
Regarding `NC(=O)N1c2ccccc2C=Cc2ccccc21` [carbamazepine], the log partition coefficient (Log P) is listed as 2.69.
